Reference: US12258327B2, “5-membered heteroaryl-containing aminopyridine compounds as EGFR inhibitors” (YUHAN CORPORATION, priority 2021, dated 2025)
Like-named read-outs stand apart in the source and are kept apart here.

What was measured:
EGFR del19/T790M/C797S = EGFR del19/T790M/C797S (Homo sapiens, UniProt P00533, C797S/DEL746-750/T790M); assay: Biochemical EGFR kinase assay (Lance Ultra TR-FRET), triple mutant del19/T790M/C797S
In short: (§1)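 Kinase activity is measured by TR-FRET phosphopeptide detection. Compounds span 0.003 μM to 10 μM; the 1 h reaction at room temperature is quenched with EDTA, then labelled antibody (2 nM) is incubated 60 min before reading.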

EGFR wildtype (WT) = EGFR wildtype (WT) (Homo sapiens, UniProt P00533); assay: Biochemical EGFR kinase assay (Lance Ultra TR-FRET), wildtype
EGFR wildtype (WT), sequence (P00533 25-1210): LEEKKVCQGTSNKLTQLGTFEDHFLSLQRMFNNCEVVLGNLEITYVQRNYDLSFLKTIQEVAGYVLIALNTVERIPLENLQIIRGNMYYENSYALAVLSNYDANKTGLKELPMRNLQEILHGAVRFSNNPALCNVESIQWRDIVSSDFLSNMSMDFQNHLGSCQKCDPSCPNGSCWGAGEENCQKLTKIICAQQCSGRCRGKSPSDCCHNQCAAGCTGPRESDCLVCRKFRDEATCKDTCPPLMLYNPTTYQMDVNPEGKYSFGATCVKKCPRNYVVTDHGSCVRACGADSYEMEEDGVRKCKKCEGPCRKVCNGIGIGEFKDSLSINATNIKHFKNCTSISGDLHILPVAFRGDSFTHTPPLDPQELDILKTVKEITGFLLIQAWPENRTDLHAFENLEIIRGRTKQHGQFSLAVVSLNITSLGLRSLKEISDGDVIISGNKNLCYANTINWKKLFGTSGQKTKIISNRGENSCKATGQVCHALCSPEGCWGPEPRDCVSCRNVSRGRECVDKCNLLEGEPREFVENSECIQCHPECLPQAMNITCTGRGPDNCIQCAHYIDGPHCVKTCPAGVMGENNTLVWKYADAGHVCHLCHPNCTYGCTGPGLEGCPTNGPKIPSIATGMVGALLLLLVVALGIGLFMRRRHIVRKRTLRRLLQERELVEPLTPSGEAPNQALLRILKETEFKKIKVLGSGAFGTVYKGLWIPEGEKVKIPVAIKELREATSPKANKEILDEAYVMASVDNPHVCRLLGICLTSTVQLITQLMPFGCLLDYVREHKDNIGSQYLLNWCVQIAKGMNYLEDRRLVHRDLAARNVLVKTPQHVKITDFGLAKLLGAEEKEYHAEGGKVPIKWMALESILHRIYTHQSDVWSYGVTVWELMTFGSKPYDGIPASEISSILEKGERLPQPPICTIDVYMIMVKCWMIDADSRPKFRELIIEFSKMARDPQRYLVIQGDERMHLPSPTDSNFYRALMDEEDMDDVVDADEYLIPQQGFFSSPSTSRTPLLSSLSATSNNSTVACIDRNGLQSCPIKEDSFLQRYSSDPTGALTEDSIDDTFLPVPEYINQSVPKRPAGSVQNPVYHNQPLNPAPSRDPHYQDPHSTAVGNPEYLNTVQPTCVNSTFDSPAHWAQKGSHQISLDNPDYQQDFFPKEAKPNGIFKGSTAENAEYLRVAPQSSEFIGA
In short: as §1

EGFR del19/C797S = EGFR del19/C797S (Homo sapiens, UniProt P00533, C797S/DEL746-750); assay: Biochemical EGFR kinase assay (Lance Ultra TR-FRET), double mutant del19/C797S
EGFR del19/C797S, sequence (P00533 with tags, fused parts or gaps DEL746-750/C797S): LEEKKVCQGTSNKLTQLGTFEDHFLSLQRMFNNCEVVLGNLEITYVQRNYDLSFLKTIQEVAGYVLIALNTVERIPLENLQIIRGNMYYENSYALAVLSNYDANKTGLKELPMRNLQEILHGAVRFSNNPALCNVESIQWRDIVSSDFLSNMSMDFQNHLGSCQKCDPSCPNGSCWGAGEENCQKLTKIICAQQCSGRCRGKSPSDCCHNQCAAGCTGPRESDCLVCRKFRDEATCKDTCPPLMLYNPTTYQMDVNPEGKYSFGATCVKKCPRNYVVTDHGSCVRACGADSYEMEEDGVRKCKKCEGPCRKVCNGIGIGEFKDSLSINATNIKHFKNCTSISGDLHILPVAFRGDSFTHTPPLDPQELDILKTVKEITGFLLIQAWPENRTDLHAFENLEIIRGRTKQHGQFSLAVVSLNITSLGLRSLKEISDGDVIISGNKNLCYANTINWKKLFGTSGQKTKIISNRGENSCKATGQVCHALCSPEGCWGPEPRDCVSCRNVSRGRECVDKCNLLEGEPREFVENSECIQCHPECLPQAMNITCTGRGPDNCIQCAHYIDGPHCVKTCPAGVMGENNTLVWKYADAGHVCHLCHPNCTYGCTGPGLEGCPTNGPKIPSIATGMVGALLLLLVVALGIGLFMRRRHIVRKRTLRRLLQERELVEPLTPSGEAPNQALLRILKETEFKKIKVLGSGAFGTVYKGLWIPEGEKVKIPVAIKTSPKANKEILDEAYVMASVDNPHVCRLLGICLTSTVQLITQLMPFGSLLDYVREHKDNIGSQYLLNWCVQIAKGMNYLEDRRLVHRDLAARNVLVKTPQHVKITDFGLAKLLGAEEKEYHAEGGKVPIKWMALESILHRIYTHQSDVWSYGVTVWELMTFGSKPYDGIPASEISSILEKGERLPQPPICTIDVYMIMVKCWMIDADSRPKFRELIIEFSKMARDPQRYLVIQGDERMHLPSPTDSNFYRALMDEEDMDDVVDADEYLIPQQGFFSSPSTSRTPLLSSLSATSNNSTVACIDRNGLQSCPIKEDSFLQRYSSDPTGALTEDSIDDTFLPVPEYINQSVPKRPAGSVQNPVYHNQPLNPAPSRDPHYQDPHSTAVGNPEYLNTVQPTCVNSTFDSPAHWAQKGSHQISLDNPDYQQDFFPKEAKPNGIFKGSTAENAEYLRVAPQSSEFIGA
In short: as §1

EGFR L858R/C797S = EGFR L858R/C797S (Homo sapiens, UniProt P00533, C797S/L858R); assay: Biochemical EGFR kinase assay (Lance Ultra TR-FRET), double mutant L858R/C797S
In short: as §1

EGFR L858R/T790M/C797S = EGFR L858R/T790M/C797S (Homo sapiens, UniProt P00533, C797S/L858R/T790M); assay: Biochemical EGFR kinase assay (Lance Ultra TR-FRET), triple mutant L858R/T790M/C797S
EGFR L858R/T790M/C797S, sequence (P00533 25-1210 T790M/C797S/L858R): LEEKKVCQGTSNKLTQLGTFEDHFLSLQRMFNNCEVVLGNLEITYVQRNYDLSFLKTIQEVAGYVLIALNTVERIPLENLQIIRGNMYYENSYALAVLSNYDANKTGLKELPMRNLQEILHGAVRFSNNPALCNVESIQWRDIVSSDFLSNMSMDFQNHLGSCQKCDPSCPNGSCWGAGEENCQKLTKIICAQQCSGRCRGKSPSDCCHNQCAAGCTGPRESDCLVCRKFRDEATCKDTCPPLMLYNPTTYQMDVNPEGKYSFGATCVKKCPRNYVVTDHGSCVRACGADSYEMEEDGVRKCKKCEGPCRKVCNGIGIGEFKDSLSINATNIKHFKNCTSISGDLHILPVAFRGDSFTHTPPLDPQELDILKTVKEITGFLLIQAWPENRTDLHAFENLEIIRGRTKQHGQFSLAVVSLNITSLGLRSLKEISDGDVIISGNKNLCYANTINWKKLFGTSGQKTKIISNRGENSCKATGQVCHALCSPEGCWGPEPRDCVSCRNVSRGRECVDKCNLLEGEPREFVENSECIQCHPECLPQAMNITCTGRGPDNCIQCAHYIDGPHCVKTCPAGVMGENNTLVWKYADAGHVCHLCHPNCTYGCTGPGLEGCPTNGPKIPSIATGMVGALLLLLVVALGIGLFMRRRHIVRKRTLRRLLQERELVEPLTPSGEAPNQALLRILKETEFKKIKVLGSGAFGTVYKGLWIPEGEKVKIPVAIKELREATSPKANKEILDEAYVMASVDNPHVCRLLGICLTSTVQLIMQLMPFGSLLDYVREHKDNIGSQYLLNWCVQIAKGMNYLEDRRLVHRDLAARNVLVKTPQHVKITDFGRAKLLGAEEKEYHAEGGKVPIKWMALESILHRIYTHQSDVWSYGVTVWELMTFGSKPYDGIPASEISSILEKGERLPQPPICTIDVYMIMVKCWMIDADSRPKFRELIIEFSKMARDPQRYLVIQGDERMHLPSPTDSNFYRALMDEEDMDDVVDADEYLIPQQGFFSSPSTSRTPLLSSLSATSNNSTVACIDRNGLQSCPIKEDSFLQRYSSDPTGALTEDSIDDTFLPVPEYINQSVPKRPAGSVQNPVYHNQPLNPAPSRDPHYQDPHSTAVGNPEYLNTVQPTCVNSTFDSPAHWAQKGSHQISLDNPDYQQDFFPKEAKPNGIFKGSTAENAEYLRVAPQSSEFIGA
In short: as §1

[1] = IC50 del19/T790M/C797S (nM) 100 μM ATP, 100 μM ATP
[2] = Km ATP, read-out: IC50 del19/T790M/C797S (nM) Km ATP
[3] = IC50 WT (nM) 100 μM ATP, 100 μM ATP
[4] = Km ATP, read-out: IC50 WT (nM) Km ATP
[5] = IC50 del19/C797S (nM) 100 μM ATP, 100 μM ATP
[6] = Km ATP, read-out: IC50 del19/C797S (nM) Km ATP
[7] = IC50 L858R/C797S (nM) 100 μM ATP, 100 μM ATP
[8] = Km ATP, read-out: IC50 L858R/C797S (nM) Km ATP
[9] = IC50 L858R/T790M/C797S (nM) 100 μM ATP, 100 μM ATP
[10] = Km ATP, read-out: IC50 L858R/T790M/C797S (nM) Km ATP

EGFR del19/T790M/C797S, sequence (P00533 with tags, fused parts or gaps DEL746-750/T790M/C797S): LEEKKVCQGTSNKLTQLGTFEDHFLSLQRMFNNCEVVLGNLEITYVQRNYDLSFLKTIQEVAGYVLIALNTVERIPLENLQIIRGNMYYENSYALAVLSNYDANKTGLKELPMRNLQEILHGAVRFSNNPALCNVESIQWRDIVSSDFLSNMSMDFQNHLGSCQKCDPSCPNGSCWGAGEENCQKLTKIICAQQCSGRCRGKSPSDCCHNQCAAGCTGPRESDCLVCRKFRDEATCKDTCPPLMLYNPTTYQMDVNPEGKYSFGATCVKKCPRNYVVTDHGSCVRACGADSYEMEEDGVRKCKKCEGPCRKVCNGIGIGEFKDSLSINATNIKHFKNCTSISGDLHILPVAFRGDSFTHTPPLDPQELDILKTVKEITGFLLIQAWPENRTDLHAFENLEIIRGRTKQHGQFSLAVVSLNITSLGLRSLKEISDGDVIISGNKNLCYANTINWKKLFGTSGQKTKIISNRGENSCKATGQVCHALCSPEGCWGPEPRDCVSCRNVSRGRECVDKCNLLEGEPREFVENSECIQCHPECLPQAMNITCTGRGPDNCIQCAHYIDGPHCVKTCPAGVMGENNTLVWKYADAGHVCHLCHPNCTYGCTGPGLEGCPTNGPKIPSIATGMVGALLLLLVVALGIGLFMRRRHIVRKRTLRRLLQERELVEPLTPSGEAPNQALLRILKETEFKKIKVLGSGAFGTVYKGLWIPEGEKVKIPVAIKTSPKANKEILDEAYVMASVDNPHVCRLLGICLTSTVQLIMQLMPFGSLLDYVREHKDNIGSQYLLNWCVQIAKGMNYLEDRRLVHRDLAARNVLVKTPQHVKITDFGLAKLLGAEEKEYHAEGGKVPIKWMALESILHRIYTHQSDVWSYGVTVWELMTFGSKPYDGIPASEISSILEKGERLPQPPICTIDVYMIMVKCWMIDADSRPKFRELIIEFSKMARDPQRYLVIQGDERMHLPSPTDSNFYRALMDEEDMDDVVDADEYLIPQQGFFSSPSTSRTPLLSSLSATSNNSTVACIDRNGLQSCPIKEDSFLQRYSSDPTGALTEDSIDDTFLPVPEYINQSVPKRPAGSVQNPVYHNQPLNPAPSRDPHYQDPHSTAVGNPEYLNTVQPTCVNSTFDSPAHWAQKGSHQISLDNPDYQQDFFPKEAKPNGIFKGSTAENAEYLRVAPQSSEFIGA

| Structure (SMILES) | IC50 (EGFR del19/T790M/C797S; [1]) [nM] | IC50 (EGFR del19/T790M/C797S; [2]) [nM] | IC50 (EGFR wildtype (WT); [3]) [nM] | IC50 (EGFR wildtype (WT); [4]) [nM] | IC50 (EGFR del19/C797S; [5]) [nM] | IC50 (EGFR del19/C797S; [6]) [nM] | IC50 (EGFR L858R/C797S; [7]) [nM] | IC50 (EGFR L858R/C797S; [8]) [nM] | IC50 (EGFR L858R/T790M/C797S; [9]) [nM] | IC50 (EGFR L858R/T790M/C797S; [10]) [nM] | IC50 (EGFR del19/T790M/C797S; Km ATP, read-out: IC50 del19/T790M/C797S, Km ATP) [nM] | IC50 (EGFR wildtype (WT); Km ATP, read-out: IC50 WT, Km ATP) [nM] | IC50 (EGFR del19/C797S; Km ATP, read-out: IC50 del19/C797S, Km ATP) [nM] | IC50 (EGFR L858R/C797S; Km ATP, read-out: IC50 L858R/C797S, Km ATP) [nM] | IC50 (EGFR L858R/T790M/C797S; Km ATP, read-out: IC50 L858R/T790M/C797S, Km ATP) [nM] |
| --- | --- | --- | --- | --- | --- | --- | --- | --- | --- | --- | --- | --- | --- | --- | --- |
| O=S(=O)(C1CC1)n1cc(-c2nccc(Nc3cc(NCC4(CO)COC4)c(-c4ccn(C(F)F)n4)cn3)n2)cn1 [Example 197, (3-(((2-((2-(1-(Cyclopropylsulfonyl)-1H-pyrazol-4-yl)pyrimidin-4-yl)amino)-5-(1-(difluoromethyl)-1H-pyrazol-3-yl)pyridin-4-yl)amino)methyl)oxetan-3-yl)methanol] | 0.2 | 0.1 | > 10000 | 7.9 | 2.2 | 1.1 | 70 | 2.1 | 0.3 | 0.1 |  |  |  |  |  |
| O=S(=O)(C1CC1)n1cc(-c2nccc(Nc3cc(NC[C@H]4C[C@@H](O)C4)c(-c4ccn(C(F)F)n4)cn3)n2)cn1 [Example 35, (1s,3s)-3-(((2-((2-(1-(Cyclopropylsulfonyl)-1H-pyrazol-4-yl)pyrimidin-4-yl)amino)-5-(1-(difluoromethyl)-1H-pyrazol-3-yl)pyridin-4-yl)amino)methyl)cyclobutan-1-ol] | 0.3 | 0.4 | > 10000 | 32.9 | 5.4 | 5.2 | 57.6 | 6.5 | 0.9 | 0.2 |  |  |  |  |  |
| O=S(=O)(C1CC1)n1cc(-c2nccc(Nc3cc(N[C@H]4CC[C@@H](NCCF)CC4)c(-c4ccn(CC(F)F)n4)cn3)n2)cn1 [Example 242, N^2-(2-(1-(Cyclopropylsulfonyl)-1H-pyrazol-4-yl)pyrimidin-4-yl)-5-(1-(2,2-difluoroethyl)-1H-pyrazol-3-yl)-N^4-((1s,4s)-4-((2-fluoroethyl)amino)cyclohexyl)pyridine-2,4-diamine] | 0.2 | 0.1 | 6320 | 6 | 0.8 | 0.4 | 20.9 | 1.2 | 0.2 | 0.1 |  |  |  |  |  |
| CN[C@H]1CC[C@@H](Nc2cc(Nc3ccnc(-c4cnn(S(=O)(=O)C5CC5)c4)n3)ncc2-c2ccco2)CC1 [Example 87, N^2-(2-(1-(Cyclopropylsulfonyl)-1H-pyrazol-4-yl)pyrimidin-4-yl)-5-(furan-2-yl)-N^4-((1s,4s)-4-(methylamino)cyclohexyl)pyridine-2,4-diamine] | 0.2 |  | > 10000 |  | 6.9 |  | 31.4 |  | 0.7 |  |  |  |  |  |  |
| Cn1nc(-c2cnc(Nc3ccnc(-c4cnn(S(=O)(=O)C5CC5)c4)n3)cc2N[C@H]2CC[C@@H](C(C)(C)O)CC2)cc1C(F)(F)F [Example 254, 2-((1s,4s)-4-((2-((2-(1-(Cyclopropylsulfonyl)-1H-pyrazol-4-yl)pyrimidin-4-yl)amino)-5-(1-methyl-5-(trifluoromethyl)-1H-pyrazol-3-yl)pyridin-4-yl)amino)cyclohexyl)propan-2-ol] | 3.9 | 3.7 | > 10000 | 12.9 | 6.5 | 5.5 | 33.5 | 18.5 | 6.5 | 1.7 |  |  |  |  |  |
| O=S(=O)(C1CC1)n1cc(-c2nccc(Nc3cc(N[C@H]4CC[C@@H](CN5CCC5)CC4)c(-c4ccn(C(F)F)n4)cn3)n2)cn1 [Example 208, N^4-((1s,4s)-4-(Azetidin-1-ylmethyl)cyclohexyl)-N^2-(2-(1-(cyclopropylsulfonyl)-1H-pyrazol-4-yl)pyrimidin-4-yl)-5-(1-(difluoromethyl)-1H-pyrazol-3-yl)pyridine-2,4-diamine] | 0.3 | 0.3 | 128 | 0.6 | 0.2 | 0.2 | 0.2 | 0.2 | 0.1 | 0.1 |  |  |  |  |  |
| Cn1ccc(-c2cnc(Nc3ccnc(-c4cnn(S(=O)(=O)C5CC5)c4)n3)cc2N[C@H]2CC[C@](O)(CO)CC2)n1 [Example 221, (1s,4s)-4-((2-((2-(1-(Cyclopropylsulfonyl)-1H-pyrazol-4-yl)pyrimidin-4-yl)amino)-5-(1-methyl-1H-pyrazol-3-yl)pyridin-4-yl)amino)-1-(hydroxymethyl)cyclohexan-1-ol] | 0.3 | 0.3 | 1510 | 4.9 | 0.5 | 0.4 | 4.9 | 1 | 0.2 | 0.2 |  |  |  |  |  |
| Cc1cnn(-c2cnc(Nc3ccnc(-c4cnn(S(=O)(=O)C5CC5)c4)n3)cc2N[C@H]2CC[C@@](C)(O)CC2)c1 [Example 184, (1s,4s)-4-((2-((2-(1-(Cyclopropylsulfonyl)-1H-pyrazol-4-yl)pyrimidin-4-yl)amino)-5-(4-methyl-1H-pyrazol-1-yl)pyridin-4-yl)amino)-1-methylcyclohexan-1-ol] |  | 0.1 |  | 32 |  | 4.8 |  | 2 |  | 0.05 |  |  |  |  |  |
| Cn1nc(-c2cnc(Nc3ccnc(-c4cnn(CC(F)F)c4)n3)cc2NN2CCC(O)CC2)cc1C(F)(F)F [Example 163, 1-((2-((2-(1-(2,2-Difluoroethyl)-1H-pyrazol-4-yl)pyrimidin-4-yl)amino)-5-(1-methyl-5-(trifluoromethyl)-1H-pyrazol-3-yl)pyridin-4-yl)amino)piperidin-4-ol] |  | 1.8 |  | 737 |  | 55.3 |  | 744 |  | 0.9 |  |  |  |  |  |
| CN(C)CC1CCC(Nc2cc(Nc3ccnc(-c4cnn(S(=O)(=O)C5CC5)c4)n3)ncc2-c2ccn(C3COC3)n2)CC1 (stereo not shown) [Example 284, N^2-(2-(1-(Cyclopropylsulfonyl)-1H-pyrazol-4-yl)pyrimidin-4-yl)-N^4-((1s,4s)-4-((dimethylamino)methyl)cyclohexyl)-5-(1-(oxetan-3-yl)-1H-pyrazol-3-yl)pyridine-2,4-diamine] | 0.1 | 0.1 | 387 | 0.8 | 0.4 | 0.1 | 0.9 | 0.1 | 0.1 | 0.1 |  |  |  |  |  |

The remaining lines, values ahead:

| IC50 (EGFR del19/T790M/C797S; [1]) [nM] | IC50 (EGFR del19/T790M/C797S; [2]) [nM] | IC50 (EGFR wildtype (WT); [3]) [nM] | IC50 (EGFR wildtype (WT); [4]) [nM] | IC50 (EGFR del19/C797S; [5]) [nM] | IC50 (EGFR del19/C797S; [6]) [nM] | IC50 (EGFR L858R/C797S; [7]) [nM] | IC50 (EGFR L858R/C797S; [8]) [nM] | IC50 (EGFR L858R/T790M/C797S; [9]) [nM] | IC50 (EGFR L858R/T790M/C797S; [10]) [nM] | IC50 (EGFR del19/T790M/C797S; Km ATP, read-out: IC50 del19/T790M/C797S, Km ATP) [nM] | IC50 (EGFR wildtype (WT); Km ATP, read-out: IC50 WT, Km ATP) [nM] | IC50 (EGFR del19/C797S; Km ATP, read-out: IC50 del19/C797S, Km ATP) [nM] | IC50 (EGFR L858R/C797S; Km ATP, read-out: IC50 L858R/C797S, Km ATP) [nM] | IC50 (EGFR L858R/T790M/C797S; Km ATP, read-out: IC50 L858R/T790M/C797S, Km ATP) [nM] | Structure (SMILES) |
| --- | --- | --- | --- | --- | --- | --- | --- | --- | --- | --- | --- | --- | --- | --- | --- |
|  | 9.1 |  | 1290 |  | 171 |  | 47.9 |  | 5.9 |  |  |  |  |  | O=S(=O)(C1CC1)n1cc(-c2nccc(Nc3cc(N[C@H]4CC[C@@H](F)CC4)c(-c4ccn(CCC(F)(F)F)n4)cn3)n2)cn1 [Example 306, N^2-(2-(1-(Cyclopropylsulfonyl)-1H-pyrazol-4-yl)pyrimidin-4-yl)-N^4-((1s,4s)-4-fluorocyclohexyl)-5-(1-(3,3,3-trifluoropropyl)-1H-pyrazol-3-yl)pyridine-2,4-diamine] |
| 8 | 4.8 | > 10000 | 110 | 11.5 | 9.3 | 378 | 19.5 | 6.5 | 2 |  |  |  |  |  | Cn1nc(-c2cnc(Nc3nc(-c4cnn(S(=O)(=O)C5CC5)c4)ncc3F)cc2N[C@H]2CC[C@@](C)(O)CC2)cc1C(F)(F)F [Example 328, (1s,4s)-4-((2-((2-(1-(Cyclopropylsulfonyl)-1H-pyrazol-4-yl)-5-fluoropyrimidin-4-yl)amino)-5-(1-methyl-5-(trifluoromethyl)-1H-pyrazol-3-yl)pyridin-4-yl)amino)-1-methylcyclohexan-1-ol] |
|  |  |  |  |  |  |  |  |  |  | 0.2 | 39.6 | 2.3 | 3.7 | 0.3 | COCn1ccc(-c2cnc(Nc3ccnc(-c4cnn(S(=O)(=O)C5CC5)c4)c3)nc2N[C@H]2CC[C@@](C)(O)CC2)n1 [Example 358, (1s,4s)-4-((2-((2-(1-(Cyclopropylsulfonyl)-1H-pyrazol-4-yl)pyridin-4-yl)amino)-5-(1-(methoxymethyl)-1H-pyrazol-3-yl)pyrimidin-4-yl)amino)-1-methylcyclohexan-1-ol] |
|  | 0.4 |  | 0.9 |  | 1 |  | 0.1 |  | 0.2 |  |  |  |  |  | COCn1ccc(-c2cnc(Nc3ccnc(-c4cnn(S(=O)(=O)C5CC5)c4)n3)cc2N[C@H]2CC[C@@](C)(O)CC2)n1 [Example 294, (1s,4s)-4-((2-((2-(1-(Cyclopropylsulfonyl)-1H-pyrazol-4-yl)pyrimidin-4-yl)amino)-5-(1-(methoxymethyl)-1H-pyrazol-3-yl)pyridin-4-yl)amino)-1-methylcyclohexan-1-ol] |
|  | 1.1 |  | 355 |  | 340 |  | 0.8 |  | 1.8 |  |  |  |  |  | CC(C)Nc1cc(Nc2ccnc(-c3cnn(S(=O)(=O)C4CC4)c3)n2)ncc1-c1ccn(CCC(F)(F)F)n1 [Example 304, N^2-(2-(1-(Cyclopropylsulfonyl)-1H-pyrazol-4-yl)pyrimidin-4-yl)-N^4-isopropyl-5-(1-(3,3,3-trifluoropropyl)-1H-pyrazol-3-yl)pyridine-2,4-diamine] |
